According to ChEMBL document CHEMBL5154842, “Unique Carbazole-Oxadiazole Derivatives as New Potential Antibiotics for Combating Gram-Positive and -Negative Bacteria” (J Med Chem, 2022):
Values after ≈ are worked out from the molar mass of the structure shown. Active and inactive are the calls of the source. The rule behind the calls is not given here.

Experiments:
Pseudomonas aeruginosa [1] = assay: Antibacterial activity against Pseudomonas aeruginosa ATCC 27853 assessed as change in susceptibility at sub-MIC treated over 9 serial passages measured after 9 days by resistance development assay; format: functional, organism-based; settings: time 9.0 day
Enterococcus faecalis = assay: Antibacterial activity against Enterococcus faecalis assessed as inhibition of bacterial growth incubated for 24 hrs by CLSI protocol based two fold serial dilution method; format: functional
Pseudomonas aeruginosa [2] = assay: Antibacterial activity against Pseudomonas aeruginosa assessed as inhibition of bacterial growth incubated for 24 hrs by CLSI protocol based two fold serial dilution method; format: functional
Staphylococcus aureus [3] = assay: Antibacterial activity against Staphylococcus aureus 25923 assessed as inhibition of bacterial growth incubated for 24 hrs by CLSI protocol based two fold serial dilution method; format: functional
Acinetobacter baumannii = assay: Antibacterial activity against Acinetobacter baumannii assessed as inhibition of bacterial growth incubated for 24 hrs by CLSI protocol based two fold serial dilution method; format: functional
Staphylococcus aureus [4] = assay: Antibacterial activity against Staphylococcus aureus 29213 assessed as inhibition of bacterial growth incubated for 24 hrs by CLSI protocol based two fold serial dilution method; format: functional
Escherichia coli [5] = assay: Antibacterial activity against Escherichia coli assessed as inhibition of bacterial growth incubated for 24 hrs by CLSI protocol based two fold serial dilution method; format: functional
Klebsiella pneumoniae = assay: Antibacterial activity against Klebsiella pneumonia assessed as inhibition of bacterial growth incubated for 24 hrs by CLSI protocol based two fold serial dilution method; format: functional
Pseudomonas aeruginosa [6] = assay: Antibacterial activity against Pseudomonas aeruginosa ATCC 27853 assessed as inhibition of bacterial growth incubated for 24 hrs by CLSI protocol based two fold serial dilution method; format: functional
Escherichia coli [7] = assay: Antibacterial activity against Escherichia coli 25922 assessed as inhibition of bacterial growth incubated for 24 hrs by CLSI protocol based two fold serial dilution method; format: functional
Staphylococcus aureus [8] = assay: Antibacterial activity against methicillin-resistant Staphylococcus aureus N315 assessed as inhibition of bacterial growth incubated for 24 hrs by CLSI protocol based two fold serial dilution method; format: functional
Staphylococcus aureus [9] = assay: Antibacterial activity against Staphylococcus aureus assessed as inhibition of bacterial growth incubated for 24 hrs by CLSI protocol based two fold serial dilution method; format: functional
Cell membrane [10] = assay: Induction of inner membrane permeabilization in methicillin-resistant Staphylococcus aureus N315 assessed as increase in PI uptake by measuring increase in fluorescence intensity at 1 to 8 ug/ml incubated for 30 mins by calcein-AM/PI staining based fluorescence microscopic analysis; settings: dose 1-8 µg/ml, DDE = dose-dependent effect
Staphylococcus aureus [11] = assay: Antibacterial activity against methicillin-resistant Staphylococcus aureus N315 assessed as increase in germicidal effect at 0.5 ug/ml measured after 7 hrs by microplate reader assay; format: functional, organism-based; settings: dose 0.5 µg/ml
Staphylococcus aureus [12] = assay: Antibacterial activity against methicillin-resistant Staphylococcus aureus N315 assessed as inhibition of bacterial growth at 0.25 to 64 ug/ml incubated for 24 hrs by Alamar blue assay; format: functional, organism-based; settings: dose 0.25-64 µg/ml
Cell membrane [13] = assay: Induction of cell membrane disruption in methicillin-resistant Staphylococcus aureus N315 assessed as increase in nucleotides leakage at 0.5 to 6 ug/ml incubated under agitation condition by UV absorption based analysis; format: subcellular; settings: dose 0.5-6 µg/ml
Staphylococcus aureus [14] = assay: Antibacterial activity against methicillin-resistant Staphylococcus aureus N315 assessed as change in susceptibility at sub-MIC treated over 9 serial passages measured after 9 days by resistance development assay; format: functional, organism-based; settings: time 9.0 day
Cell membrane [15] = assay: Induction of cell membrane disruption in methicillin-resistant Staphylococcus aureus N315 assessed as increase in protein leakage at 0.5 to 6 ug/ml incubated under agitation condition by Bradford assay; settings: dose 0.5-6 µg/ml
[16] = Hemolytic activity in human RBC assessed as hemolysis at 1 to 32 ug/ml measured after 60 mins by microplate reader assay relative to control; format: toxicity, cell-based, Erythrocyte; settings: red blood cells (erythrocytes), at 1 to 32 µg/mL, dose 1-32 µg/ml, read-out: Activity
Staphylococcus aureus [17] = assay: Antibacterial activity against methicillin-resistant Staphylococcus aureus N315 assessed as inhibition of bacterial growth at 0.5 to 16 ug/ml measured after 24 hrs by microplate reader assay; format: functional, organism-based; settings: dose 0.5-16 µg/ml
Cell membrane [18] = assay: Induction of cell membrane disruption in Pseudomonas aeruginosa ATCC 27853 assessed as increase in protein leakage at 0.5 to 6 ug/ml incubated under agitation condition by Bradford assay; settings: dose 0.5-6 µg/ml
Cell membrane [19] = assay: Induction of outer membrane permeabilization in Pseudomonas aeruginosa ATCC 27853 assessed as increase in NPN uptake by measuring increase in fluorescence intensity at 1 ug/ml by NPN-dye based fluorescence analysis; settings: dose 1.0 µg/ml
HEK-293T = assay: Cytotoxicity against human HEK293T cells assessed as cell viability at 0.5 to 64 ug/ml incubated for 24 hrs by MTT assay; format: toxicity, cell-based; settings: dose 0.5-64 µg/ml
HeLa = assay: Cytotoxicity against human HeLa cells assessed as cell viability at 0.5 to 64 ug/ml incubated for 24 hrs by MTT assay; format: toxicity, cell-based; settings: dose 0.5-64 µg/ml
Cell membrane [20] = assay: Induction of cell membrane disruption in Pseudomonas aeruginosa ATCC 27853 assessed as increase in nucleotides leakage at 0.5 to 6 ug/ml incubated under agitation condition by UV absorption based analysis; format: subcellular; settings: dose 0.5-6 µg/ml
Cell membrane [21] = assay: Induction of inner membrane permeabilization in Pseudomonas aeruginosa ATCC 27853 assessed as increase in PI uptake by measuring increase in fluorescence intensity at 1 to 8 ug/ml incubated for 30 mins by calcein-AM/PI staining based fluorescence microscopic analysis; settings: dose 1-8 µg/ml

C=CCn1c2ccccc2c2c(OCc3nnc(S)o3)cccc21
Activity (Pseudomonas aeruginosa [1]): Active | MIC (Enterococcus faecalis): 64 µg/mL (≈ 190 µM) | MIC (Pseudomonas aeruginosa [2]): 256 µg/mL (≈ 759 µM) | MIC (Staphylococcus aureus [3]): 4 µg/mL (≈ 11.9 µM) | MIC (Acinetobacter baumannii): 8 µg/mL (≈ 23.7 µM) | MIC (Staphylococcus aureus [4]): 4 µg/mL (≈ 11.9 µM) | MIC (Escherichia coli [5]): 8 µg/mL (≈ 23.7 µM) | MIC (Klebsiella pneumoniae): 4 µg/mL (≈ 11.9 µM) | MIC (Pseudomonas aeruginosa [6]): 0.5 µg/mL (≈ 1.48 µM) | MIC (Escherichia coli [7]): 8 µg/mL (≈ 23.7 µM) | MIC (Staphylococcus aureus [8]): 1 µg/mL (≈ 2.96 µM) | MIC (Staphylococcus aureus [9]): 256 µg/mL (≈ 759 µM)

Sc1nnc(Cn2c3ccccc3c3c(OCC4CC4)cccc32)o1
Activity (Cell membrane [10]): Dde | MIC (Enterococcus faecalis): 2 µg/mL (≈ 5.69 µM) | MIC (Pseudomonas aeruginosa [2]): 256 µg/mL (≈ 728 µM) | Activity (Staphylococcus aureus [11]): Active | Activity (Staphylococcus aureus [12]): Active | MIC (Staphylococcus aureus [3]): 4 µg/mL (≈ 11.4 µM) | Activity (Cell membrane [13]): Active | Activity (Staphylococcus aureus [14]): Active | MIC (Acinetobacter baumannii): 4 µg/mL (≈ 11.4 µM) | MIC (Staphylococcus aureus [4]): 1 µg/mL (≈ 2.85 µM) | MIC (Escherichia coli [5]): 2 µg/mL (≈ 5.69 µM) | MIC (Klebsiella pneumoniae): 4 µg/mL (≈ 11.4 µM) | MIC (Pseudomonas aeruginosa [6]): 4 µg/mL (≈ 11.4 µM) | Activity (Cell membrane [15]): Active | MIC (Escherichia coli [7]): 1 µg/mL (≈ 2.85 µM) | MIC (Staphylococcus aureus [8]): 0.5 µg/mL (≈ 1.42 µM) | MIC (Staphylococcus aureus [9]): 256 µg/mL (≈ 728 µM) | hemolysis at 1 h [16]: < 3% | Activity (Staphylococcus aureus [17]): Active

CCn1c2ccccc2c2c(OCc3nnc(S)o3)cccc21
Activity (Pseudomonas aeruginosa [1]): Active | MIC (Enterococcus faecalis): 8 µg/mL (≈ 24.6 µM) | MIC (Pseudomonas aeruginosa [2]): 256 µg/mL (≈ 787 µM) | MIC (Staphylococcus aureus [3]): 4 µg/mL (≈ 12.3 µM) | MIC (Acinetobacter baumannii): 8 µg/mL (≈ 24.6 µM) | MIC (Staphylococcus aureus [4]): 8 µg/mL (≈ 24.6 µM) | MIC (Escherichia coli [5]): 8 µg/mL (≈ 24.6 µM) | MIC (Klebsiella pneumoniae): 4 µg/mL (≈ 12.3 µM) | MIC (Pseudomonas aeruginosa [6]): 0.5 µg/mL (≈ 1.54 µM) | MIC (Escherichia coli [7]): 8 µg/mL (≈ 24.6 µM) | MIC (Staphylococcus aureus [8]): 2 µg/mL (≈ 6.15 µM) | MIC (Staphylococcus aureus [9]): 256 µg/mL (≈ 787 µM)

CCn1c2ccccc2c2c(OCc3nnn[nH]3)cccc21
Activity (Cell membrane [18]): Active | MIC (Enterococcus faecalis): 4 µg/mL (≈ 13.6 µM) | MIC (Pseudomonas aeruginosa [2]): 256 µg/mL (≈ 873 µM) | Activity (Staphylococcus aureus [12]): Active | MIC (Staphylococcus aureus [3]): 32 µg/mL (≈ 109 µM) | Activity (Cell membrane [19]): Active | Activity (HEK-293T): Non-Toxic | MIC (Acinetobacter baumannii): 64 µg/mL (≈ 218 µM) | Activity (HeLa): Non-Toxic | MIC (Staphylococcus aureus [4]): 32 µg/mL (≈ 109 µM) | MIC (Escherichia coli [5]): 8 µg/mL (≈ 27.3 µM) | MIC (Klebsiella pneumoniae): 64 µg/mL (≈ 218 µM) | MIC (Pseudomonas aeruginosa [6]): 1 µg/mL (≈ 3.41 µM) | MIC (Escherichia coli [7]): 64 µg/mL (≈ 218 µM) | MIC (Staphylococcus aureus [8]): 2 µg/mL (≈ 6.82 µM) | Activity (Cell membrane [20]): Active | MIC (Staphylococcus aureus [9]): 128 µg/mL (≈ 436 µM) | hemolysis at 1 h [16]: < 3% | Activity (Staphylococcus aureus [17]): Active | Activity (Cell membrane [21]): Active

C=CCn1c2ccccc2c2c(OCc3nnn[nH]3)cccc21
Activity (Cell membrane [18]): Active | MIC (Enterococcus faecalis): 4 µg/mL (≈ 13.1 µM) | MIC (Pseudomonas aeruginosa [2]): 128 µg/mL (≈ 419 µM) | Activity (Staphylococcus aureus [11]): Active | Activity (Staphylococcus aureus [12]): Active | MIC (Staphylococcus aureus [3]): 64 µg/mL (≈ 210 µM) | Activity (Cell membrane [19]): Active | Activity (HEK-293T): Non-Toxic | MIC (Acinetobacter baumannii): 128 µg/mL (≈ 419 µM) | Activity (HeLa): Non-Toxic | MIC (Staphylococcus aureus [4]): 32 µg/mL (≈ 105 µM) | MIC (Escherichia coli [5]): 1 µg/mL (≈ 3.28 µM) | MIC (Klebsiella pneumoniae): 64 µg/mL (≈ 210 µM) | MIC (Pseudomonas aeruginosa [6]): 0.5 µg/mL (≈ 1.64 µM) | MIC (Escherichia coli [7]): 32 µg/mL (≈ 105 µM) | MIC (Staphylococcus aureus [8]): 2 µg/mL (≈ 6.55 µM) | Activity (Cell membrane [20]): Active | MIC (Staphylococcus aureus [9]): 128 µg/mL (≈ 419 µM) | hemolysis at 1 h [16]: < 3% | Activity (Staphylococcus aureus [17]): Active | Activity (Cell membrane [21]): Active

Sc1nnc(COc2cccc3c2c2ccccc2n3CC2CCCC2)o1
Activity (Pseudomonas aeruginosa [1]): Active | MIC (Enterococcus faecalis): 2 µg/mL (≈ 5.27 µM) | MIC (Pseudomonas aeruginosa [2]): 256 µg/mL (≈ 675 µM) | MIC (Staphylococcus aureus [3]): 1 µg/mL (≈ 2.64 µM) | Activity (Staphylococcus aureus [14]): Active | MIC (Acinetobacter baumannii): 1 µg/mL (≈ 2.64 µM) | MIC (Staphylococcus aureus [4]): 8 µg/mL (≈ 21.1 µM) | MIC (Escherichia coli [5]): 1 µg/mL (≈ 2.64 µM) | MIC (Klebsiella pneumoniae): 1 µg/mL (≈ 2.64 µM) | MIC (Pseudomonas aeruginosa [6]): 0.25 µg/mL (≈ 0.659 µM) | MIC (Escherichia coli [7]): 2 µg/mL (≈ 5.27 µM) | MIC (Staphylococcus aureus [8]): 0.25 µg/mL (≈ 0.659 µM) | MIC (Staphylococcus aureus [9]): 256 µg/mL (≈ 675 µM)

Sc1nnc(COc2cccc3c2c2ccccc2n3CC2CC2)o1
Activity (Pseudomonas aeruginosa [1]): Active | MIC (Enterococcus faecalis): 8 µg/mL (≈ 22.8 µM) | MIC (Pseudomonas aeruginosa [2]): 256 µg/mL (≈ 728 µM) | MIC (Staphylococcus aureus [3]): 4 µg/mL (≈ 11.4 µM) | Activity (Staphylococcus aureus [14]): Active | MIC (Acinetobacter baumannii): 16 µg/mL (≈ 45.5 µM) | MIC (Staphylococcus aureus [4]): 8 µg/mL (≈ 22.8 µM) | MIC (Escherichia coli [5]): 4 µg/mL (≈ 11.4 µM) | MIC (Klebsiella pneumoniae): 4 µg/mL (≈ 11.4 µM) | MIC (Pseudomonas aeruginosa [6]): 1 µg/mL (≈ 2.85 µM) | MIC (Escherichia coli [7]): 1 µg/mL (≈ 2.85 µM) | MIC (Staphylococcus aureus [8]): 0.5 µg/mL (≈ 1.42 µM) | MIC (Staphylococcus aureus [9]): 256 µg/mL (≈ 728 µM)

Sc1nnc(COc2cccc3c2c2ccccc2n3CC2CCCCC2)o1
Activity (Pseudomonas aeruginosa [1]): Active | MIC (Enterococcus faecalis): 4 µg/mL (≈ 10.2 µM) | MIC (Pseudomonas aeruginosa [2]): 256 µg/mL (≈ 651 µM) | MIC (Staphylococcus aureus [3]): 8 µg/mL (≈ 20.3 µM) | Activity (Staphylococcus aureus [14]): Active | MIC (Acinetobacter baumannii): 4 µg/mL (≈ 10.2 µM) | MIC (Staphylococcus aureus [4]): 16 µg/mL (≈ 40.7 µM) | MIC (Escherichia coli [5]): 4 µg/mL (≈ 10.2 µM) | MIC (Klebsiella pneumoniae): 2 µg/mL (≈ 5.08 µM) | MIC (Pseudomonas aeruginosa [6]): 1 µg/mL (≈ 2.54 µM) | MIC (Escherichia coli [7]): 2 µg/mL (≈ 5.08 µM) | MIC (Staphylococcus aureus [8]): 0.5 µg/mL (≈ 1.27 µM) | MIC (Staphylococcus aureus [9]): 256 µg/mL (≈ 651 µM)
